Paper PMC4180753, “Evaluation of Inhibitory Action of Novel Non β-Lactam Inhibitor against Klebsiella pneumoniae Carbapenemase (KPC-2)” (PLoS ONE, 2014)
Converted amounts (≈) assume the structure as drawn. Read-outs that look alike come from different tables or passages of the source.

Assays:
KPC-2 [1] = target: T1, KPC-2 (Klebsiella pneumoniae, UniProt Q9F663); assay: IC50 and Ki on purified KPC-2 (nitrocefin hydrolysis); format: biochemical; parameters: inferred from Ni-NTA purification and the pQE-2 vector) (N); made in house; host or cells: E. coli BL21 (DE3); conditions: for IC50: IC50, 1 nM purified KPC-2, 5 minutes pre-incubation, 30°C, pH 7.0, nitrocefin substrate (so in the source)
Method: The 50% inhibitory concentration (IC50) was defined as the concentration of the inhibitor that inhibited hydrolytic activity of the enzyme by 50%.
The inhibition constant, Ki, was calculated from the IC50 value by applying the Cheng-Prusoff correction

[2] = system: E. coli BL21 (Null plasmid); assay: microbe, parasite or virus in culture; format: cell-based; conditions: Escherichia coli, inhibitors at fixed concentration of 4 µg/ml
Method: (§1) The Minimum Inhibitory Concentrations (MIC) of recombinant BL21(DE3) cells harboring bla KPC-2 gene were determined by micro dilution method for different carbapenems alone and in combination with inhibitors (Clavulanic acid, Sulbactam, Tazobactam, ZINC01807204 and ZINC02318494) against BL21 control cells (cells with null vector). The recombinant E. coli cells were induced with IPTG prior to performing experiments. The antimicrobial agents, imipenem, meropenem, ertapenem, clavulanic acid, sulbactam and tazobactam were obtained from Sigma Aldrich (USA) and compounds ZINC01807204 and ZINC02318494 were procured from Vitas M (Netherlands). The inhibitors were taken at a fixed concentration of 4 µg/ml.

[3] = system: Klebsiella pneumoniae NP6 (clinical strain, KPC-2); assay: microbe, parasite or virus in culture; format: cell-based
[4] = system: E. coli BL21 transformed with recombinant bla KPC-2 (pQE2-KPC-2); assay: microbe, parasite or virus in culture; format: cell-based, Escherichia coli; conditions: for MIC of the carbapenem in combination with screened inhibitors (ZINC01807204 and ZINC02318494) / MIC: BL21 (pQE2-KPC-2); for MIC of the carbapenem in combination with screened inhibitors (ZINC01807204 and ZINC02318494) / reduction in MIC of the carbapenem in combination with screened compounds (ZINC01807204 and ZINC02318494): inhibitors 4 µg/ml; for MIC: inhibitors at fixed concentration of 4 µg/ml; for reduction in MIC of the carbapenem in combination with screened compounds (ZINC01807204 and ZINC02318494): KPC-2 expressing BL21 cells
Method: A carbapenem resistant clinical strain of K. pneumoniae (NP6), previously characterised in our lab was procured from Jawaharlal Nehru Medical College (JNMC), Aligarh. […] Escherichia coli (DH5α) and E. coli BL21 (DE3) were used for cloning and protein expression experiments respectively. Minimum inhibitory concentration (MIC) and Confocal Laser Scanning Microscopy (CLSM) experiments were conducted on E.coli (BL21) cells expressing recombinant KPC-2 β-lactamase.
as §1

[5] = system: Klebsiella pneumoniae MTCC 432; assay: MIC, susceptible MTCC strain; format: cell-based
[6] = system: E. coli BL21 transformants harbouring bla KPC-2; assay: CLSM Live/Dead cell staining (PI/SYTO 9); format: cell-based, Escherichia coli; conditions: 4 hours
Method: The control was taken without any drug. The media was inoculated and incubated at 37^οC for 4 hours. The media was removed and dishes were gently washed with MOPS (pH 7.0) to wash off extra media. Cells were then stained with propidium iodide (PI) and SYTO 9 (1∶1) for one hour. The fluorescence emission was observed using confocal scanning laser microscope FluoView FV1000 (Olympus, Tokyo, Japan). The optimal excitation wavelengths were […] and the optimal emission wavelengths were 500 and 610 nm, respectively. The images were obtained from atleast three randomly picked positions. The images of the control and in presence of known as well as novel inhibitors were averaged and compared.

[7] = Solubility observed in the inhibition assay; format: physicochemical; conditions: at higher concentrations; reason IC50 and Ki could not be determined
KPC-2 [8] = target: T1, KPC-2; conditions: nitrocefin as reporter substrate of KPC-2
[9] = MTCC432, MTCC 432, inhibitors at fixed concentration of 4µg/ml, read-out: MIC
[10] = sub-MIC meropenem in combination with the inhibitor (4 µg/ml)

T1 sequence (Q9F663 25-293 limits assumed): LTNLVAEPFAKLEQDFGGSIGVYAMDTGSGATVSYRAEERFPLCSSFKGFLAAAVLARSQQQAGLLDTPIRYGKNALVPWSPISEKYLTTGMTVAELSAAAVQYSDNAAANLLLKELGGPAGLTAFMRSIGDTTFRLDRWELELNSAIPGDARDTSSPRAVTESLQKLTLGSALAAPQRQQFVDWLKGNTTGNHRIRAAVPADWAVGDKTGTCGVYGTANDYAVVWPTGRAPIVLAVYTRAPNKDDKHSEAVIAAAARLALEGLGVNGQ

Structure (SMILES) | Ki (KPC-2 [1]) | IC50 (KPC-2 [1]) | MIC [2] | MIC [3] | MIC of the carbapenem in combination with screened inhibitors (ZINC01807204 and ZINC02318494) [4] | MIC [4] | MIC ([4]; Escherichia coli) | reduction in MIC of the carbapenem in combination with screened compounds (ZINC01807204 and ZINC02318494) [4] | other results
O=C(O)[C@H]1/C(=C/CO)O[C@@H]2CC(=O)N21 [Clavulanic acid] | 30 µM | 137 µM |  |  |  |  |  |  | 
C[C@@H](O)[C@H]1C(=O)N2C(C(=O)O)=C(S[C@@H]3CN[C@H](C(=O)Nc4cccc(C(=O)O)c4)C3)[C@H](C)[C@H]12 [Ertapenem, ertapenem] |  |  | 0.25 µg/mL | ≥ 256 µg/mL | 16 µg/mL | ≥128 µg/mL | 128 µg/mL | 8 fold | MIC [5, 9]: 0.0625 µg/mL (≈ 0.131 µM)
C[C@@H](O)[C@H]1C(=O)N2C(C(=O)O)=C(SCCN=CN)C[C@H]12 [Imipenem, imipenem] |  |  | 0.25 µg/mL | ≥ 256 µg/mL | 16 µg/mL | ≥64 µg/mL | 64 µg/mL | four fold | MIC [5, 9]: 0.0625 µg/mL (≈ 0.209 µM)
C[C@@H](O)[C@H]1C(=O)N2C(C(=O)O)=C(S[C@@H]3CN[C@H](C(=O)N(C)C)C3)[C@H](C)[C@H]12 [Meropenem, meropenem] |  |  | 0.125 µg/mL | ≥ 256 µg/mL | 8 µg/mL | ≥64 µg/mL | 64 µg/mL | 8 fold and eight fold | cells green with normal cell membranes ([6]; sub-MIC concentration of meropenem alone): 60–70%; MIC ([5]; MTCC432): 0.125 µg/mL (≈ 0.326 µM)
CC1(C)[C@H](C(=O)O)N2C(=O)C[C@H]2S1(=O)=O [Sulbactam] | 23.2 µM | 106 µM |  |  |  |  |  |  | 
C[C@]1(Cn2ccnn2)[C@H](C(=O)O)N2C(=O)C[C@H]2S1(=O)=O [Tazobactam] | 21.6 µM | 98.8 µM |  |  |  |  |  |  | cells green with normal cell membranes [6, 10]: 60–70%
CC(=O)Nc1ccc(S(=O)(=O)Nc2ccccc2NS(=O)(=O)c2ccc(NC(C)=O)cc2)cc1 [ZINC01807204] | 43.8 µM | 200 µM |  |  |  |  |  |  | cells binding PI and Syto 9 (yellowish orange, affected) [6, 10]: 90–95%
CC(C)[C@H](NS(=O)(=O)c1ccc2c(c1)Cc1cc(S(=O)(=O)N[C@H](C(=O)O)C(C)C)ccc1-2)C(=O)O [ZINC02318494] |  |  |  |  |  |  |  |  | cells binding PI and Syto 9 (yellowish orange, affected) [6, 10]: 90–95%; solubility [7]: poor solubility at higher concentrations
O=C(Cc1cccs1)N[C@@H]1C(=O)N2C(C(=O)O)=C(/C=C/c3ccc([N+](=O)[O-])cc3[N+](=O)[O-])CS[C@H]12 [nitrocefin] |  |  |  |  |  |  |  |  | Km (KPC-2 [8]): 28 ± 6 µM
